{"source": "patent US7060686B2", "about": "“Anti-inflammatory compounds derived from Pseudopterogorgia elisabethae” (The Regents of the University of California, priority 2000, dated 2006)", "key": {"[1]": {"system": "phorbol 12-myristate 13-acetate (PMA) induced ear edema", "test": "Mouse ear anti-inflammatory assay", "assay_type": "in vivo", "conditions": "for inhibition in vivo at 25 µg/ear: Mus musculus, 200 min; for inhibition in vivo at 25 µg/ear / Edema (mg ± sem) / % Inhibition: topical, 200 minutes; for inhibition in vivo at 25 µg/ear / % Inhibition: 25 μg/ear with PMA, decrease in edema relative to PMA control group; for Relative Potency, Pseudopterosin A: potency estimate relative to Pseudopterosin A (historical ED50 15 μg/ear); for Relative Potency, Pseudopterosin E: potency estimate relative to Pseudopterosin E (historical ED50 40 μg/ear); for Edema (mg ± sem): 25 μg/ear test compound with 2 μg/ear PMA, left minus right ear bore weight, N=5", "description": "A. Mouse Ear Anti-Inflammatory Assay Each compound was topically applied in acetone to the inside pinnae of the ear of a mouse in a solution containing the edema-causing irritant, phorbol 12-myristate 13-acetate (PMA). 2 μg per ear of PMA alone or 25 μg per ear of test compound in combination with PMA was applied to the left ear of each mouse and acetone (control) was applied to each right ear of each mouse. There were 5 mice per treatment group. After incubating 200 minutes, the mice were sacrificed, the ears were removed, and bores were taken and weighed. Edema (inflammation) was measured by subtracting the weight of the right ear from the weight of the left ear. Results were recorded as % decrease (inhibition) or % increase (potentiation) in edema relative to the PMA control group edema."}, "[2]": {"system": "phorbol 12-myristate 13-acetate (PMA) induced ear edema", "conditions": "Jacobs' historical standards; cited from earlier work"}}}
{"compound": "CC(=O)OC1C(Oc2c(C)c3c4c(c2O)[C@@H](C)CC[C@@H]4[C@@H](C)CC3C=C(C)C)OCC(O)C1O", "note": "(stereo partly shown) [Compound 1]", "values": [{"measurement": "inhibition in vivo at 25 µg/ear", "setting": "[1]", "value": 68, "unit": "%"}, {"measurement": "Relative Potency, Pseudopterosin A", "setting": "[1]", "value": 118, "unit": "%"}, {"measurement": "Relative Potency, Pseudopterosin E", "setting": "[1]", "value": 324, "unit": "%"}, {"measurement": "Edema (mg ± sem)", "setting": "[1]", "value": "2.1 ± 0.5", "unit": "mg"}]}
{"compound": "CC(=O)OC1C(O)COC(Oc2c(C)c3c4c(c2O)[C@@H](C)CC[C@@H]4[C@@H](C)CC3C=C(C)C)C1O", "note": "(stereo partly shown) [Compound 2]", "values": [{"measurement": "inhibition in vivo at 25 µg/ear", "setting": "[1]", "value": 88, "unit": "%"}, {"measurement": "Edema (mg ± sem)", "setting": "[1]", "value": "0.8 ± 0.2", "unit": "mg"}, {"measurement": "% Inhibition", "setting": "[1]", "value": "highest percent inhibition"}]}
{"compound": "CC(=O)OC1COC(Oc2c(C)c3c4c(c2O)[C@@H](C)CC[C@@H]4[C@@H](C)CC3C=C(C)C)C(O)C1O", "note": "(stereo partly shown) [Compound 3]", "values": [{"measurement": "inhibition in vivo at 25 µg/ear", "setting": "[1]", "value": 69, "unit": "%"}, {"measurement": "Relative Potency, Pseudopterosin A", "setting": "[1]", "value": 123, "unit": "%"}, {"measurement": "Relative Potency, Pseudopterosin E", "setting": "[1]", "value": 337, "unit": "%"}, {"measurement": "Edema (mg ± sem)", "setting": "[1]", "value": "0.9 ± 0.2", "unit": "mg"}]}
{"compound": "CC(=O)OC1C(Oc2c(C)cc3c(c2O)[C@@H](C)CC[C@@H]3[C@@H](C)CCC=C(C)C)OC(C)C(O)C1O", "note": "(stereo partly shown) [Compound 4]", "values": [{"measurement": "inhibition in vivo at 25 µg/ear", "setting": "[1]", "value": 88, "unit": "%"}, {"measurement": "Edema (mg ± sem)", "setting": "[1]", "value": "0.8 ± 0.2", "unit": "mg"}, {"measurement": "% Inhibition", "setting": "[1]", "value": "highest percent inhibition"}]}
{"compound": "CC(=O)OC1C(O)C(C)OC(Oc2c(C)cc3c(c2O)[C@@H](C)CC[C@@H]3[C@@H](C)CCC=C(C)C)C1O", "note": "(stereo partly shown) [Compound 5]", "values": [{"measurement": "inhibition in vivo at 25 µg/ear", "setting": "[1]", "value": 65, "unit": "%"}, {"measurement": "Relative Potency, Pseudopterosin A", "setting": "[1]", "value": 103, "unit": "%"}, {"measurement": "Relative Potency, Pseudopterosin E", "setting": "[1]", "value": 288, "unit": "%"}, {"measurement": "Edema (mg ± sem)", "setting": "[1]", "value": "2.4 ± 0.6", "unit": "mg"}]}
{"compound": "CC(=O)OC1C(C)OC(Oc2c(C)cc3c(c2O)[C@@H](C)CC[C@@H]3[C@@H](C)CCC=C(C)C)C(O)C1O", "note": "(stereo partly shown) [Compound 6]", "values": [{"measurement": "inhibition in vivo at 25 µg/ear", "setting": "[1]", "value": 74, "unit": "%"}, {"measurement": "Relative Potency, Pseudopterosin A", "setting": "[1]", "value": 148, "unit": "%"}, {"measurement": "Relative Potency, Pseudopterosin E", "setting": "[1]", "value": 410, "unit": "%"}, {"measurement": "Edema (mg ± sem)", "setting": "[1]", "value": "1.8 ± 0.3", "unit": "mg"}]}
{"compound": "CC(C)=CCC[C@H](C)[C@H]1CC[C@H](C)C2=C1C(=O)C(C)=C(O)C2=O", "note": "[Compound 7, elisabethadione]", "values": [{"measurement": "inhibition in vivo at 25 µg/ear", "setting": "[1]", "value": 83, "unit": "%"}, {"measurement": "Edema (mg ± sem)", "setting": "[1]", "value": "1.2 ± 0.1", "unit": "mg"}]}
{"compound": "CC(C)=C[C@H]1C[C@H](C)[C@H]2CC[C@H](C)C3=C2C1(O)C(C)=C(O)C3=O", "note": "(stereo partly shown) [Compound 8, elisabethadiol]", "values": [{"measurement": "inhibition in vivo at 25 µg/ear", "setting": "[1]", "value": 9, "unit": "%"}, {"measurement": "Edema (mg ± sem)", "setting": "[1]", "value": "6.2 ± 0.6", "unit": "mg"}]}
{"compound": "CC(C)=C[C@H]1C[C@H](C)[C@H]2CC[C@H](C)c3c(O[C@@H]4OC[C@@H](O)[C@H](O)[C@H]4O)c(O)c(C)c1c32", "note": "[Pseudopterosin A]", "values": [{"measurement": "ED50", "setting": "[2]", "value": 15, "unit": "μg/ear"}]}
{"compound": "CC(C)=C[C@H]1C[C@H](C)[C@H]2CC[C@H](C)c3c(O)c(O[C@@H]4O[C@@H](C)[C@@H](O)[C@@H](O)[C@@H]4O)c(C)c1c32", "note": "[Pseudopterosin E]", "values": [{"measurement": "ED50", "setting": "[2]", "value": 40, "unit": "μg/ear"}]}
